According to publication PMC5933782, “Molecular structures of cdc2-like kinases in complex with a new inhibitor chemotype” (PLoS ONE, 2018):

Legend:
Assay in all cases: radiometric protein kinase assay
[1] = molecular target: T1, CDK2/cyclin A (Homo sapiens, UniProt P24941); format: biochemical; conditions: for IC50: 15 μmol/L ATP, read-out: IC50 CDK2/cyclinA; for Residual enzyme activity CDK2/cyclin A: 10 µM concentration, ± SEM
T1 construct: made in house

[2] = molecular target: CLK2 (Mus musculus, UniProt O35491); conditions: for Residual enzyme activity CLK 2: 10 µM concentration, ± SEM
Method: (§1) Buffers. Buffer A: 10 mM MgCl2, 1 mM EGTA, 1 mM DTT, 25 mM Tris-HCl pH 7.5, 50 μg heparin/mL. Buffer C: 60 mM β-glycerophosphate, 15 mM p-nitrophenylphosphate, 25 mM MOPS (pH 7.2), 15 mM EGTA, 15 mM MgCl2, 1 mM DTT, 1 mM sodium vanadate, 1 mM phenylphosphate.
(§2) Kinase activities were assayed in buffer A or C at 30°C at a final ATP concentration of 15 μmol/L. Blank values were subtracted and activities were expressed in percent of the maximal activity, i.e. in the absence of inhibitors. Controls were performed with appropriate dilutions of DMSO.
(§3) Their kinase activity was assayed in buffer A, with 1 mg histone H1/mL, in the presence of 15 μmol/L [γ-33P] ATP (3,000 Ci/mmol; 10 mCi/mL) in a final volume of 30 μL. After 30 min incubation at 30°C, the reaction was stopped by harvesting onto P81 phosphocellulose supernatant (Whatman) using a FilterMate harvester (Packard) and washing in 1% phosphoric acid. Scintillation fluid was added and the radioactivity measured in a Packard counter.
(§4) All data points for construction of dose response curves were recorded in triplicate.

[3] = molecular target: DYRK1B (Homo sapiens, UniProt Q9Y463); format: biochemical; conditions: for IC50: 15 μmol/L ATP, read-out: IC50 DYRK 1B; for Residual enzyme activity DYRK 1B: 10 µM concentration, ± SEM
[4] = molecular target: T2, DYRK3 (Homo sapiens, UniProt O43781); format: biochemical; conditions: for IC50: 15 μmol/L ATP, read-out: IC50 DYRK 3; for Residual enzyme activity DYRK 3: 10 µM concentration, ± SEM
T2 sequence (O43781 1-588): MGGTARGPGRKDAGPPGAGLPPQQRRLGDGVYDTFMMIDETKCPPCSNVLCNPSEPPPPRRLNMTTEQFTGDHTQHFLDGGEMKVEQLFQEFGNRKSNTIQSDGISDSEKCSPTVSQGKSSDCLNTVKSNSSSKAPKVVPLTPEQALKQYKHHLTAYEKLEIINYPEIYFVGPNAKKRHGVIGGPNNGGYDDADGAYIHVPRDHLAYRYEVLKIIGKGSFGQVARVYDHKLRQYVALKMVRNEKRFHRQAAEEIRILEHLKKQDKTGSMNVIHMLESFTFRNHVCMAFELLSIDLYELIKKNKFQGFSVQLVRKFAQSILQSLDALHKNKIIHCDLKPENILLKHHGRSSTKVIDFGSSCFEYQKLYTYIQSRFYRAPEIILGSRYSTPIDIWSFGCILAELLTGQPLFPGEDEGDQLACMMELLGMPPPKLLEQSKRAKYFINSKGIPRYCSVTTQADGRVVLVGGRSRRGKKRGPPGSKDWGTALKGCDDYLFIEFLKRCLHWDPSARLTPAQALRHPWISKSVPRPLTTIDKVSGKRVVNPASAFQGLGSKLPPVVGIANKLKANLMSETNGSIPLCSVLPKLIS

[5] = molecular target: CLK3 (Mus musculus, UniProt O35492); conditions: for Residual enzyme activity CLK 3: 10 µM concentration, ± SEM
Method: as §1, §2, §3, §4

[6] = molecular target: CDK1/cyclin B; format: biochemical, starfish; conditions: for IC50: 15 μmol/L ATP; for Residual enzyme activity CDK1/cyclin B: 10 µM concentration, ± SEM
[7] = molecular target: T3, CDK5/p25 (Homo sapiens, UniProt Q00535); format: biochemical; conditions: for IC50: 15 μmol/L ATP; for Residual enzyme activity CDK5/p25: 10 µM concentration, ± SEM
T3 construct: made in house

[8] = molecular target: CK1δ/ε; format: biochemical, porcine; conditions: for IC50: 15 μmol/L ATP, read-out: IC50 CK1; for Residual enzyme activity CK1: 10 µM concentration, ± SEM
[9] = molecular target: T4, DYRK2 (Homo sapiens, UniProt Q92630); format: biochemical; conditions: for IC50: 15 μmol/L ATP, read-out: IC50 DYRK 2; for Residual enzyme activity DYRK 2: 10 µM concentration, ± SEM
T4 sequence (Q92630 1-601): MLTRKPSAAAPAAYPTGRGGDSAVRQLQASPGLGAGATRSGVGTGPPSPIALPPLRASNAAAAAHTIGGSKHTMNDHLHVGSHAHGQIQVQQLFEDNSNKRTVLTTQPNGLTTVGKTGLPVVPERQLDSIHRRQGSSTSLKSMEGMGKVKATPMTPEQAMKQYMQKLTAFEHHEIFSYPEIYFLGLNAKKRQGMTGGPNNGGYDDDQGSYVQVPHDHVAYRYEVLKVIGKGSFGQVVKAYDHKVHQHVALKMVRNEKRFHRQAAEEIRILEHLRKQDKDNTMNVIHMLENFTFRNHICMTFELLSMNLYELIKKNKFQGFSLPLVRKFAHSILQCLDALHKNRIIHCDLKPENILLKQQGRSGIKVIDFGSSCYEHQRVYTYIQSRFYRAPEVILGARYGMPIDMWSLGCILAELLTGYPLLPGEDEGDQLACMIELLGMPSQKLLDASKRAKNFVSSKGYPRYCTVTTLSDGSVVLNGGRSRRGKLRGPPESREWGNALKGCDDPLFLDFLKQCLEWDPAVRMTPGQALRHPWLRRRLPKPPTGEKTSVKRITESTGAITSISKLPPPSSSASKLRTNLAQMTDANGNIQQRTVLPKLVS

[10] = molecular target: CLK1 (Mus musculus, UniProt P22518); conditions: for Residual enzyme activity CLK 1: 10 µM concentration, ± SEM
Method: Buffer A: 10 mM MgCl2, 1 mM EGTA, 1 mM DTT, 25 mM Tris-HCl pH 7.5, 50 μg heparin/mL. Buffer C: 60 mM β-glycerophosphate, 15 mM p-nitrophenylphosphate, 25 mM MOPS (pH 7.2), 15 mM EGTA, 15 mM MgCl2, 1 mM DTT, 1 mM sodium vanadate, 1 mM phenylphosphate.
Controls were performed with appropriate dilutions of DMSO. The GS-1, CKS, CDK7/9 tide and RS peptide substrates were obtained from Proteogenix (Oberhausbergen, France).
CDK1/cyclin B (M phase starfish oocytes, native), CDK2/cyclin A and CDK5/p25 (human, recombinant) were prepared as previously described [33]. […] ATP (3,000 Ci/mmol; 10 mCi/mL) in a final volume of 30 μL. After 30 min incubation at 30°C, the reaction was stopped by harvesting onto P81 phosphocellulose supernatant (Whatman) using a FilterMate harvester (Packard) and washing in 1% phosphoric acid. Scintillation fluid was added and the radioactivity measured in a Packard counter.
as §4

[11] = molecular target: CDK9/cyclin T (Homo sapiens, UniProt P50750); conditions: for Residual enzyme activity CDK9/cyclin T: 10 µM concentration, ± SEM
Method: as §1, §2, §3, §4

[12] = molecular target: CLK4 (Mus musculus, UniProt O35493); conditions: for Residual enzyme activity CLK 4: 10 µM concentration, ± SEM
[13] = molecular target: DYRK1A (Homo sapiens, UniProt Q13627); format: biochemical; conditions: for IC50: 15 μmol/L ATP, read-out: IC50 DYRK 1A; for Residual enzyme activity DYRK 1A: 10 µM concentration, ± SEM
[14] = molecular target: GSK-3; format: biochemical, porcine; conditions: for IC50: 15 μmol/L ATP, read-out: IC50 GSK3; for Residual enzyme activity GSK3: 10 µM concentration, ± SEM

CLK4, sequence (O35493 whole entry): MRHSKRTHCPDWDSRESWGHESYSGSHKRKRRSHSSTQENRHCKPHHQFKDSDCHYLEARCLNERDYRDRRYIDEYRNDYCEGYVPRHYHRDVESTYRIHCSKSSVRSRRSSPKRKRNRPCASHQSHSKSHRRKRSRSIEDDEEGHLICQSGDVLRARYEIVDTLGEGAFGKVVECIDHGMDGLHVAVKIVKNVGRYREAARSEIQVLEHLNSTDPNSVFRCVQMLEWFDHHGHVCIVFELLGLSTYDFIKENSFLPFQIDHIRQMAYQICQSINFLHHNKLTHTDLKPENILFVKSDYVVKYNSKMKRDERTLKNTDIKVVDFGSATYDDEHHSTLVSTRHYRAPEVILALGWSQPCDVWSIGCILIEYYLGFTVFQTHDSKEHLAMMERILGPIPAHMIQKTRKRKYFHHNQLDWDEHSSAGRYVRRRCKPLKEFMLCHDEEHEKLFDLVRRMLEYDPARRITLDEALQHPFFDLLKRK
DYRK1B, sequence (Q9Y463 whole entry): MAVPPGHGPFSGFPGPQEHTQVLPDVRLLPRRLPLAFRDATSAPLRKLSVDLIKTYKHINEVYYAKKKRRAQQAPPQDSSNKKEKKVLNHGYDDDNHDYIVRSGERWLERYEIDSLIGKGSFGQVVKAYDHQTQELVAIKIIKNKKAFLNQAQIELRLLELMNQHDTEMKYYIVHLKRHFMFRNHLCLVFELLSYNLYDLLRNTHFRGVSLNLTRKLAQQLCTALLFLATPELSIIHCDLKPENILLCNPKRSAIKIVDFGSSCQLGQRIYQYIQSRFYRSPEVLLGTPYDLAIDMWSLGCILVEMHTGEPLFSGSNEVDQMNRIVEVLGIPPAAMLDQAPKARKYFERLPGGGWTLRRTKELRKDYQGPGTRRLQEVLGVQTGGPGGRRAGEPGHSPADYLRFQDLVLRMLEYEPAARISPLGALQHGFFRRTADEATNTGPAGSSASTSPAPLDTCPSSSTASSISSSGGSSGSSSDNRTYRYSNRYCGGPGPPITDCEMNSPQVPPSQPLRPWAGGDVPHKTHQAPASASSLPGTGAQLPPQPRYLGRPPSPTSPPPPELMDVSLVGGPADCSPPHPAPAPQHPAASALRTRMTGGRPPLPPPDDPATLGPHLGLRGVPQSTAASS
CLK3, sequence (O35492 whole entry): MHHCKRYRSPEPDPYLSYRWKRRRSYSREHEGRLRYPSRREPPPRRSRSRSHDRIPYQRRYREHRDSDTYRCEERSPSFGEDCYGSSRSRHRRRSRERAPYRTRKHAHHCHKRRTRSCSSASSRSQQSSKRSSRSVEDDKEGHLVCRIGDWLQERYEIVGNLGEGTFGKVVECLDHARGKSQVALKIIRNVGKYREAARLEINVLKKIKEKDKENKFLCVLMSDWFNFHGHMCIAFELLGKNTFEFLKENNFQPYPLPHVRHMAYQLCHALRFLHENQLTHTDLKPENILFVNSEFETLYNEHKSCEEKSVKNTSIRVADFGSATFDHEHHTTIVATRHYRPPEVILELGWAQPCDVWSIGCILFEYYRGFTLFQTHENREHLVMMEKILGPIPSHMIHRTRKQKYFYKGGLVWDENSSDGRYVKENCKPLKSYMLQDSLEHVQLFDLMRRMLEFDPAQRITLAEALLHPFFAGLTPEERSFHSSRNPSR
CDK9/cyclin T, sequence (P50750 whole entry): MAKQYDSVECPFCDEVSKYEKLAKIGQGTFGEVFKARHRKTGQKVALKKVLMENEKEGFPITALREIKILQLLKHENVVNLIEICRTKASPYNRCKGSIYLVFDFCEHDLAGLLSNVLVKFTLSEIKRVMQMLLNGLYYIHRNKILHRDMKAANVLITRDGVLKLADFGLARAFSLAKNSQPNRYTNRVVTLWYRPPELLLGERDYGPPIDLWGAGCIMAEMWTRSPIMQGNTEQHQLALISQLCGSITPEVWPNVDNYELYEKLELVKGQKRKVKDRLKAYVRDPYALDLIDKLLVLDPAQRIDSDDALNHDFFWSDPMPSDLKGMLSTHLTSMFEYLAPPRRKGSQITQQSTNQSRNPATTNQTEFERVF
CDK9/cyclin T, sequence (O60563 whole entry partner): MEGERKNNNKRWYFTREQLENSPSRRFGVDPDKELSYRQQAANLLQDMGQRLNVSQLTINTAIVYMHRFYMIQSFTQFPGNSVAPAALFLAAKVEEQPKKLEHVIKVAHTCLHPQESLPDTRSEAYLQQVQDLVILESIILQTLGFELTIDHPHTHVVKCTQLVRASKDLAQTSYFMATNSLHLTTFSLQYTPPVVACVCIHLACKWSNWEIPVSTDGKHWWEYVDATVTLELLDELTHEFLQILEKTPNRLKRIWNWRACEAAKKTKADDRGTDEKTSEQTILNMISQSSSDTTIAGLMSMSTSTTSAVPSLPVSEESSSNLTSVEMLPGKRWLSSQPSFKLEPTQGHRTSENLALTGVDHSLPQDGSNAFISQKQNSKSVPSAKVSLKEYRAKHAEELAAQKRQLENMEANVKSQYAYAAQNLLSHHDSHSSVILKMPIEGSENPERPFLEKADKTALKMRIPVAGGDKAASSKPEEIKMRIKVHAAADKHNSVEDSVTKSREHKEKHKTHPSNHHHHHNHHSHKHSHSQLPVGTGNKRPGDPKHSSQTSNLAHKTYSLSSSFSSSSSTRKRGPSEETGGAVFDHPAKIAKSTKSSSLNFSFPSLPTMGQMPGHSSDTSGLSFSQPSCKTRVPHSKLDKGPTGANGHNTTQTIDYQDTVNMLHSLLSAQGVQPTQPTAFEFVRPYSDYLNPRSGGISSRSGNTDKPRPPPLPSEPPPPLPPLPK
CLK1, sequence (P22518 whole entry): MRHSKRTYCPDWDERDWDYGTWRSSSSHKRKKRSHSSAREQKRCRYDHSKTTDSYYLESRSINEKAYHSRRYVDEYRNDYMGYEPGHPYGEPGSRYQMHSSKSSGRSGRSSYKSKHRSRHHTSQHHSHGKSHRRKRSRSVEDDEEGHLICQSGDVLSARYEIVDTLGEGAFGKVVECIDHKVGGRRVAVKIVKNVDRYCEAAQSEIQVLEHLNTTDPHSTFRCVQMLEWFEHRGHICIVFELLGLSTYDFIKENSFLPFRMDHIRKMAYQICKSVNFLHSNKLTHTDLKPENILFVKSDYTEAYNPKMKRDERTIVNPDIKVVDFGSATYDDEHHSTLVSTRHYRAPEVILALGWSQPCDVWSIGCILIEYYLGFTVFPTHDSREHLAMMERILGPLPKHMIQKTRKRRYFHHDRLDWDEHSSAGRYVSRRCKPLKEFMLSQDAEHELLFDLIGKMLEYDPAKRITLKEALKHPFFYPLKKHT
T3 sequence (Q00535 whole entry): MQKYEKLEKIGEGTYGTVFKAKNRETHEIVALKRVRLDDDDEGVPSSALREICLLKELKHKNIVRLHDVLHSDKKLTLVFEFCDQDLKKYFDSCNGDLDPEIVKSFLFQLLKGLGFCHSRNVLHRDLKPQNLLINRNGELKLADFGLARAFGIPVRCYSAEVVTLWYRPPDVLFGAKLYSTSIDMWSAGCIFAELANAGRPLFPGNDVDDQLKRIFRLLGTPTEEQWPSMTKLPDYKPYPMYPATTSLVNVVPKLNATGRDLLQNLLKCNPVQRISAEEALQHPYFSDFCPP
T3 sequence (Q15078 99-307 partner limits assumed): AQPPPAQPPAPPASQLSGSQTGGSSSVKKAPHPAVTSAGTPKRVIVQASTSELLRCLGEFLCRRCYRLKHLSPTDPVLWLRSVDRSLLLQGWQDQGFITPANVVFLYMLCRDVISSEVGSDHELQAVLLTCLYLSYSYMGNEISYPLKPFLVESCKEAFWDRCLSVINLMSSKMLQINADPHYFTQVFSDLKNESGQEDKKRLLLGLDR
CLK2, sequence (O35491 whole entry): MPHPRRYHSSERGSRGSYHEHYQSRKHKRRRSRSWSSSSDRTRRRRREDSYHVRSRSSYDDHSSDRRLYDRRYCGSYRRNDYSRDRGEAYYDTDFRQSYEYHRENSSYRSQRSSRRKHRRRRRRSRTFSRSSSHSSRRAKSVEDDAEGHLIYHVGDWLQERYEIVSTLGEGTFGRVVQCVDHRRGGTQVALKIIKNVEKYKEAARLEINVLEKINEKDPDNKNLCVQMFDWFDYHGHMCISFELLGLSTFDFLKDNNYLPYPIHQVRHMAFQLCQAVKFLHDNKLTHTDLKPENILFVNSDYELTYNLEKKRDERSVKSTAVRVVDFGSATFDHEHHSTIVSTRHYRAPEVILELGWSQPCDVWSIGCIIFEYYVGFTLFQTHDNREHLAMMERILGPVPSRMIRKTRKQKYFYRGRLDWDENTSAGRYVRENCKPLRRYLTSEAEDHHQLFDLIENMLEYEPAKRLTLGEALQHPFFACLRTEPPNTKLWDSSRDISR

## O=C1NCc2c(-c3ccccc3)cc3c(-c4ccccc4)c[nH]c3c21 [17a, 3,5-Diphenyl-6,7-dihydropyrrolo[3,4-g]indol-8(1H)-one]
[1]
  IC50: > 10 µM
[2]
  IC50: 7.2 µM
[3]
  IC50: > 10 µM
[4]
  IC50: > 10 µM
[5]
  IC50: > 10 µM
[6]
  IC50: > 10 µM
[7]
  IC50: > 10 µM
[8]
  IC50: > 10 µM
[9]
  IC50: > 10 µM
[10]
  IC50: 8.8 µM
[11]
  IC50: > 10 µM
[12]
  IC50: 1.3 µM
[13]
  IC50: > 10 µM
[14]
  IC50: > 10 µM

## O=C1NCc2c(-c3cccc(F)c3)cc3c(-c4ccccc4)c[nH]c3c21 [17c, 5-(3-Fluorophenyl)-3-phenyl-6,7-dihydropyrrolo[3,4-g]indol-8(1H)-one]
[1]
  IC50: > 10 µM
[2]
  IC50: > 10 µM
[3]
  IC50: > 10 µM
[4]
  IC50: > 10 µM
[5]
  IC50: > 10 µM
[6]
  IC50: > 10 µM
[7]
  IC50: > 10 µM
[8]
  IC50: > 10 µM
[9]
  IC50: > 10 µM
[10]
  IC50: 7.2 µM
[11]
  IC50: > 10 µM
[12]
  IC50: 3.2 µM
[13]
  IC50: > 10 µM
[14]
  IC50: > 10 µM

## CCc1[nH]c2c3c(ccc2c1C)CNC3=O [S18a]
[1]
  Residual enzyme activity CDK2/cyclin A: 99±8%
[2]
  Residual enzyme activity CLK 2: 31±4%
[3]
  Residual enzyme activity DYRK 1B: 46±8%
[4]
  Residual enzyme activity DYRK 3: 65±9%
[5]
  Residual enzyme activity CLK 3: 92±12%
[6]
  Residual enzyme activity CDK1/cyclin B: 94±13%
[7]
  Residual enzyme activity CDK5/p25: 100±9%
[8]
  Residual enzyme activity CK1: 50±6%
[9]
  Residual enzyme activity DYRK 2: 42±12%
[10]
  Residual enzyme activity CLK 1: 20±2%
[11]
  Residual enzyme activity CDK9/cyclin T: 93±5%
[12]
  Residual enzyme activity CLK 4: 7±2%
[13]
  Residual enzyme activity DYRK 1A: 54±1%
[14]
  Residual enzyme activity GSK3: 97±3%

## Cc1[nH]c2c3c(ccc2c1C)CNC3=O [S18b]
[1]
  Residual enzyme activity CDK2/cyclin A: 103±2%
[2]
  Residual enzyme activity CLK 2: 63±17%
[3]
  Residual enzyme activity DYRK 1B: 77±11%
[4]
  Residual enzyme activity DYRK 3: 89±8%
[5]
  Residual enzyme activity CLK 3: 104±14%
[6]
  Residual enzyme activity CDK1/cyclin B: 93±26%
[7]
  Residual enzyme activity CDK5/p25: 111±18%
[8]
  Residual enzyme activity CK1: 75±3%
[9]
  Residual enzyme activity DYRK 2: 61±4%
[10]
  Residual enzyme activity CLK 1: 92±8%
[11]
  Residual enzyme activity CDK9/cyclin T: 104±7%
[12]
  Residual enzyme activity CLK 4: 48±6%
[13]
  Residual enzyme activity DYRK 1A: 82±5%
[14]
  Residual enzyme activity GSK3: 135±18%

## Cc1c(-c2ccccc2)[nH]c2c3c(ccc12)CNC3=O [S18c]
[1]
  Residual enzyme activity CDK2/cyclin A: 109±8%
[2]
  Residual enzyme activity CLK 2: 30±1%
[3]
  Residual enzyme activity DYRK 1B: 50±7%
[4]
  Residual enzyme activity DYRK 3: 91±17%
[5]
  Residual enzyme activity CLK 3: 93±9%
[6]
  Residual enzyme activity CDK1/cyclin B: 77±26%
[7]
  Residual enzyme activity CDK5/p25: 105±11%
[8]
  Residual enzyme activity CK1: 57±5%
[9]
  Residual enzyme activity DYRK 2: 57±25%
[10]
  Residual enzyme activity CLK 1: 29±4%
[11]
  Residual enzyme activity CDK9/cyclin T: 89±6%
[12]
  Residual enzyme activity CLK 4: 10±0%
[13]
  Residual enzyme activity DYRK 1A: 58±7%
[14]
  Residual enzyme activity GSK3: 112±2%

## CCc1c(-c2ccccc2)[nH]c2c3c(ccc12)CNC3=O [S18d]
[1]
  Residual enzyme activity CDK2/cyclin A: 104±2%
[2]
  Residual enzyme activity CLK 2: 66±5%
[3]
  Residual enzyme activity DYRK 1B: 65±8%
[4]
  Residual enzyme activity DYRK 3: 87±5%
[5]
  Residual enzyme activity CLK 3: 110±16%
[6]
  Residual enzyme activity CDK1/cyclin B: 109±30%
[7]
  Residual enzyme activity CDK5/p25: 112±11%
[8]
  Residual enzyme activity CK1: 86±3%
[9]
  Residual enzyme activity DYRK 2: 50±6%
[10]
  Residual enzyme activity CLK 1: 66±3%
[11]
  Residual enzyme activity CDK9/cyclin T: 100±10%
[12]
  Residual enzyme activity CLK 4: 38±3%
[13]
  Residual enzyme activity DYRK 1A: 74±14%
[14]
  Residual enzyme activity GSK3: 111±7%

## Cc1ccc(-c2[nH]c3c4c(ccc3c2C)CNC4=O)cc1 [S18e]
[1]
  Residual enzyme activity CDK2/cyclin A: 102±9%
[2]
  Residual enzyme activity CLK 2: 77±6%
[3]
  Residual enzyme activity DYRK 1B: 85±7%
[4]
  Residual enzyme activity DYRK 3: 92±9%
[5]
  Residual enzyme activity CLK 3: 105±10%
[6]
  Residual enzyme activity CDK1/cyclin B: 100±20%
[7]
  Residual enzyme activity CDK5/p25: 114±11%
[8]
  Residual enzyme activity CK1: 84±7%
[9]
  Residual enzyme activity DYRK 2: 75±11%
[10]
  Residual enzyme activity CLK 1: 105±12%
[11]
  Residual enzyme activity CDK9/cyclin T: 101±3%
[12]
  Residual enzyme activity CLK 4: 64±9%
[13]
  Residual enzyme activity DYRK 1A: 99±16%
[14]
  Residual enzyme activity GSK3: 120±31%

## Cc1[nH]c2c3c(ccc2c1C)C(=O)NC3=O [S19]
[1]
  Residual enzyme activity CDK2/cyclin A: 108±8%
[2]
  Residual enzyme activity CLK 2: 33±7%
[3]
  Residual enzyme activity DYRK 1B: 39±5%
[4]
  Residual enzyme activity DYRK 3: 57±3%
[5]
  Residual enzyme activity CLK 3: 91±11%
[6]
  Residual enzyme activity CDK1/cyclin B: 81±27%
[7]
  Residual enzyme activity CDK5/p25: 94±4%
[8]
  Residual enzyme activity CK1: 65±5%
[9]
  Residual enzyme activity DYRK 2: 20±5%
[10]
  Residual enzyme activity CLK 1: 52±10%
[11]
  Residual enzyme activity CDK9/cyclin T: 90±5%
[12]
  Residual enzyme activity CLK 4: 21±1%
[13]
  Residual enzyme activity DYRK 1A: 41±8%
[14]
  Residual enzyme activity GSK3: 51±5%

## O=C1NCc2ccc3c(-c4ccccc4)c(Br)[nH]c3c21 [compound 16, 2-Bromo-3-phenyl-6,7-dihydropyrrolo[3,4-g]indol-8(1H)-one]
[1]
  IC50: > 10 µM
[2]
  IC50: 0.11 µM
[3]
  IC50: 1.3 µM
[4]
  IC50: 3.9 µM
[5]
  IC50: 2.8 µM
[6]
  IC50: > 10 µM
[7]
  IC50: > 10 µM
[8]
  IC50: > 10 µM
[9]
  IC50: 1.8 µM
[10]
  IC50: 0.11 µM
[11]
  IC50: > 10 µM
[12]
  IC50: 0.029 µM
[13]
  IC50: 1.9 µM
[14]
  IC50: > 10 µM
